Data reported in US7482329B2, “Single domain TDF-related compounds and analogs thereof” (Thrasos Therapeutics, priority 2002, dated 2009).
“Also recorded” adds a separate entry of the source. Where a SMILES comes first, the peptide text is derived from it.

T1: BMPR-2 receptor extra cellular domain (Homo sapiens, UniProt Q13873)
T1 construct: immobilized BMPR-2 receptor extra cellular domain (ECD)
T1 sequence (Q13873 27-150 limits assumed): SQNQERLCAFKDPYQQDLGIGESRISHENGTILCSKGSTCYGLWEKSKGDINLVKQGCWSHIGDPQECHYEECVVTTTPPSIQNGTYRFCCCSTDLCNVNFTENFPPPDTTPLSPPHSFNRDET


Experiments:
[1] = test system: ICAM-1 in HK2 human transformed kidney proximal tubule cells; assay: ICAM-1 level in HK-2 cell medium after TNF-alpha stimulation (ELISA); assay type: cell-based; details: FIG. 7; for effect on level of ICAM-1 in HK2 cell medium: after TNF-alpha inflammatory stimulation
Description: The immortalized PTEC-derived HK-2 (Human Kidney-2) cells (ATCC number CRL-2190) were grown in serum-free keratinocyte medium (GIBCO number 17005-042) supplemented with epidermal growth factor (EGF: 5 ng/mL) and bovine pituitary extract (40 ug/mL) for 48 hours as described previously (Ryan et al (1994) Kidney International 45:48-57). Cells were transferred to 24-well plates at a density of 3×10^5 cells per well. After 24 hours, cells were incubated with fresh medium containing TNF-alpha (5 ng/mL) for 20 hours. Controls received medium alone. Then cells were washed twice with fresh culture medium and further incubated with culture medium alone (medium control, and TNF control wells) or TDF-1 at three different concentrations (40, 200 or 1000 ng/mL) or TDFRP compounds at three different concentrations (4, 20 or 100 uM) for sixty hours. During incubation, cells were kept in a 5% CO2 humid atmosphere at 37° C. At the end of the incubation, the media were removed and stored frozen until assayed. The concentrations of IL-6 and sICAM-in culture supernatants were measured by specific ELISA.
Dilute the capture antibody to the working concentration in PBS, pH 7.4 without carrier protein. Add 61 uL of stock antibody (720 ug/mL) to 10.939 mL of PBS, gently vertex. Immediately coat a 96 well microplate (Immulon 4 HBX) with 100 uL per well of the diluted capture antibody. Seal the plate and incubate it overnight in cold (4° C.). (PBS: 8.1 mM Na2HPO4, 1.5 mM KH2PO4, 137 mM NaCl, 2.7 mM KCl, pH 7.4, 0.2 um filtered).
Next day empty the wells and wash the wells three times, each time using 340 uL of wash buffer per well. (wash buffer: PBS, pH 7.4 containing 0.05% Tween-20). Prepare blocking buffer, 35 mL per plate. To prepare blocking buffer, add 0.35 grams of BSA and 1.75 grams of sucrose to 35 mL of PBS, pH 7.4, and mix the contents gently. Add 300 uL of blocking buffer to each well and incubate the plate for a minimum of 1 hour at room temperature. Empty the wells and wash wells three times, each time using 340 uL of wash buffer per well. […]

[2] = biological target: T1, BMPR-2 receptor extra cellular domain; assay: Radio-ligand receptor binding assay, competition with 125I-labeled TDF-1 for BMPR-2
Source text: General protocol: These assays are based on competition between ^125I-labeled TDF-1 (BMP-7 or OP-1) and candidate TDFRP compounds or unlabeled TDF-1 for binding to respective receptors (ALK-3, ALK-6 or BMPR-2). In brief, the procedure involves immobilization of receptor on 96 well Removawell plates, blocking the wells with 3% BSA in PBS and subsequently washing the wells. Increasing concentrations of unlabeled TDF-1 or TDFRP compounds or control (unlabeled TDF-1) prepared in binding buffer are then added. Incubate plate for 1 hour at room temperature, and then add a fixed amount of ^125I-labeled TDF-1 (250,000 to 350,000 cpm) to the wells and further incubate in cold (4° C.) for 20 hours. Aspirate the contents of the wells and wash the wells four times with a wash buffer, and count the receptor bound ^125I-labeled TDF-1 in an auto gamma counter. B. HK-2 Cell Culture and Determination of Cytokine Production

Smad1 in HK2 cells = assay: Smad1 accumulation in the nucleus of HK2 cells (Ser-Thr signal transduction); assay type: cell-based, human; details: fluorescent labeling of Smad-1, FIG. 8, FIG. 9
Source text: Open column is non-inflammation background level of ICAM-1; Black column is the ICAM-1 level following TNF-alpha inflammatory stimulation. […] In the Ser-Thr signaling pathway, the ligand (TDF-1 or TP2.003) bind to both the type 1 receptor (ALK3) and the type 2 receptor (BMPR2) inducing oligomerization of the receptors. The type 2 receptor under goes phosphorylation and then phosphorylates the type 1 receptor, which then phosphorylates one of Smad 1, 5 or 8 (ref. to as Smad1 below). The phosphorylated Smad1 is then picked up by Smad4 and ferried into the nucleus. Thus, detection of the concentration of Smad1 in the nucleus is diagnostic of induction of signal transduction.
Note that in the right hand column, the phase contrast images of the HK2 cells showing close to confluency; the images on the left show fluorescent labeling of Smad-1 in the nucleus of HK2 cells.

Molecule	EC50 ([1]; HK2 cells, TNF-alpha stimulus, read-out: ED50, lowering of ICAM-1 level) [nM]	effect on level of ICAM-1 in HK2 cell medium [1]	specific binding to BMPR-2 / inhibition of specific binding of labeled TDF-1 to BMPR-2 receptor ([2]; competitive binding, FIG. 4)	Smad1 accumulation in the nucleus / induction of Ser-Thr signal transduction (Smad1 in HK2 cells)	EC50 ([2]; FIG. 3, read-out: ED50, displacing labeled TDF-1 from immobilized BMPR-2 receptor ECD) [nM]
CC(C)C[C@H](NC(=O)[C@@H](NC(=O)[C@H](CC(N)=O)NC(=O)[C@H](CO)NC(=O)[C@H](CO)NC(=O)[C@H](CC(=O)O)NC(=O)[C@H](CC(=O)O)NC(=O)[C@H](Cc1ccccc1)NC(=O)[C@H](Cc1ccc(O)cc1)NC(=O)[C@@H](N)CS)C(C)C)C(=O)N[C@@H](CS)C(=O)N[C@@H](CCCCN)C(=O)N[C@@H](CCCCN)C(=O)N[C@@H](Cc1ccc(O)cc1)C(=O)N[C@@H](CCCNC(=N)N)C(=O)N[C@@H](CO)C(=O)O [SEQ ID NO:45, CYFDDSSNVLCKKYRS] (H-CYFDDSSNVLCKKYRS-OH)	< 4000	reduces the level of cellular inflammation marker ICAM-1; also recorded: lowers the level of ICAM-1 in a dose dependent manner	specifically binds and does	induces Ser-Thr signal transduction; also recorded: dose dependent response of Smad1 accumulation in the nucleus	–
TDF-1: TDF-1 (BMP-7 or OP-1), bone morphogenetic protein-7; unlabeled control ligand in the binding and cell assays (protein) STGSKQRSQNRSKTPKNQEALRMANVAENSSSDQRQACKKHELYVSFRDLGWQDWIIAPEGYAAYYCEGECAFPLNSYMNATNHAIVQTLVHFINPETVPKPCCAPTQLNAISVLYFDDSSNVILKKYRNMVVRACGCH	–	lowers the level of ICAM-1 in a dose dependent manner	–	induces Ser-Thr signal transduction; also recorded: dose dependent response of Smad1 accumulation in the nucleus	6.3
